Test system: subjects with moderate-to-severe plaque psoriasis
Assay: Suicidal ideation or behavior (Columbia-Suicide Severity Rating Scale)
[1] = Combined (all regimens), Week 16-56
[2] = Placebo → 100 mg QD, Week 16-56
[3] = Placebo → 100 mg QD, through Week 56

Method: Adverse events were reported and followed by the investigator. Any clinically relevant changes occurring during the study were recorded. Any clinically significant abnormalities persisting at the end of the study/early withdrawal were followed by the investigator until resolution or until a clinically stable condition was reached if possible. The evaluations of safety and tolerability include: physical examinations, vital signs, electrocardiograms, clinical safety laboratory assessments, review of concomitant medication, pregnancy testing, suicidal ideation evaluation via the Columbia—Suicide Severity Rating Scale, and tuberculosis evaluation.

CC(=O)NCCCC[C@@H]1NC(=O)[C@H](Cc2c[nH]c3c(C)cccc23)NC(=O)[C@H]([C@@H](C)O)NC(=O)[C@H](CC(N)=O)NC(=O)[C@@H](NC(C)=O)C(C)(C)SSC(C)(C)[C@@H](C(=O)N[C@@H](Cc2ccc(OCCN)cc2)C(=O)N[C@@H](Cc2ccc3ccccc3c2)C(=O)NC2(C(=O)N[C@@H](CCC(=O)O)C(=O)N[C@@H](CC(N)=O)C(=O)N[C@@H](Cc3cccnc3)C(=O)N(C)CC(N)=O)CCOCC2)NC1=O [IL-23 receptor antagonist peptide, Ac-[Pen]*-N-T-[W(7-Me)]-[Lys(Ac)]-[Pen]*-Phe[4-(2-aminoethoxy)]-[2-Nal]-[THP]-E-N-[3-Pal]-Sarc-NH2 (*[Pen]-[Pen]* formdisulfidebond)]
0: Subjects with 1 - Wish to be dead (25 mg BID, Week 16-56) | Subjects with 2 - Non-specific active suicidal thoughts (25 mg BID, Week 16-56) | Subjects with 3 - Active suicidal ideation with any methods (not plan) without intent to act (25 mg BID, Week 16-56) | Subjects with 4 - Active suicidal ideation with some intent to act, without specific plan (25 mg BID, Week 16-56) | Subjects with 5 - Active suicidal ideation with specific plan and intent (25 mg BID, Week 16-56) | Subjects with 6 - Preparatory acts or behavior (25 mg BID, Week 16-56) | Subjects with 7 - Aborted attempt (25 mg BID, Week 16-56) | Subjects with 8 - Interrupted attempt (25 mg BID, Week 16-56) | Subjects with 9 - Non-fatal suicide attempt (25 mg BID, Week 16-56) | Subjects with 10 - Completed suicide (25 mg BID, Week 16-56) | Subjects with suicidal behavior (25 mg BID, Week 16-56) | Subjects with suicidal ideation (25 mg BID, Week 16-56) | Subjects with suicidal ideation or behavior (25 mg BID, Week 16-56) | Subjects with 1 - Wish to be dead (25 mg BID, through Week 56) | Subjects with 2 - Non-specific active suicidal thoughts (25 mg BID, through Week 56) | Subjects with 3 - Active suicidal ideation with any methods (not plan) without intent to act (25 mg BID, through Week 56) | Subjects with 4 - Active suicidal ideation with some intent to act, without specific plan (25 mg BID, through Week 56) | Subjects with 5 - Active suicidal ideation with specific plan and intent (25 mg BID, through Week 56) | Subjects with 6 - Preparatory acts or behavior (25 mg BID, through Week 56) | Subjects with 7 - Aborted attempt (25 mg BID, through Week 56) | Subjects with 8 - Interrupted attempt (25 mg BID, through Week 56) | Subjects with 9 - Non-fatal suicide attempt (25 mg BID, through Week 56) | Subjects with 10 - Completed suicide (25 mg BID, through Week 56) | Subjects with suicidal behavior (25 mg BID, through Week 56) | Subjects with suicidal ideation (25 mg BID, through Week 56) | Subjects with suicidal ideation or behavior (25 mg BID, through Week 56) | Subjects with 1 - Wish to be dead (25 mg QD, through Week 56) | Subjects with 2 - Non-specific active suicidal thoughts (25 mg QD, through Week 56) | Subjects with 3 - Active suicidal ideation with any methods (not plan) without intent to act (25 mg QD, through Week 56) | Subjects with 4 - Active suicidal ideation with some intent to act, without specific plan (25 mg QD, through Week 56) | Subjects with 5 - Active suicidal ideation with specific plan and intent (25 mg QD, through Week 56) | Subjects with 6 - Preparatory acts or behavior (25 mg QD, through Week 56) | Subjects with 7 - Aborted attempt (25 mg QD, through Week 56) | Subjects with 8 - Interrupted attempt (25 mg QD, through Week 56) | Subjects with 9 - Non-fatal suicide attempt (25 mg QD, through Week 56) | Subjects with 10 - Completed suicide (25 mg QD, through Week 56) | Subjects with suicidal behavior (25 mg QD, through Week 56) | Subjects with suicidal ideation (25 mg QD, through Week 56) | Subjects with suicidal ideation or behavior (25 mg QD, through Week 56) | Subjects with 1 - Wish to be dead (25 mg QD, Week 16-56) | Subjects with 2 - Non-specific active suicidal thoughts (25 mg QD, Week 16-56) | Subjects with 3 - Active suicidal ideation with any methods (not plan) without intent to act (25 mg QD, Week 16-56) | Subjects with 4 - Active suicidal ideation with some intent to act, without specific plan (25 mg QD, Week 16-56) | Subjects with 5 - Active suicidal ideation with specific plan and intent (25 mg QD, Week 16-56) | Subjects with 6 - Preparatory acts or behavior (25 mg QD, Week 16-56) | Subjects with 7 - Aborted attempt (25 mg QD, Week 16-56) | Subjects with 8 - Interrupted attempt (25 mg QD, Week 16-56) | Subjects with 9 - Non-fatal suicide attempt (25 mg QD, Week 16-56) | Subjects with 10 - Completed suicide (25 mg QD, Week 16-56) | Subjects with suicidal behavior (25 mg QD, Week 16-56) | Subjects with suicidal ideation (25 mg QD, Week 16-56) | Subjects with suicidal ideation or behavior (25 mg QD, Week 16-56) | Subjects with 1 - Wish to be dead (50 mg QD, Week 16-56) | Subjects with 2 - Non-specific active suicidal thoughts (50 mg QD, Week 16-56) | Subjects with 3 - Active suicidal ideation with any methods (not plan) without intent to act (50 mg QD, Week 16-56) | Subjects with 4 - Active suicidal ideation with some intent to act, without specific plan (50 mg QD, Week 16-56) | Subjects with 5 - Active suicidal ideation with specific plan and intent (50 mg QD, Week 16-56) | Subjects with 6 - Preparatory acts or behavior (50 mg QD, Week 16-56) | Subjects with 7 - Aborted attempt (50 mg QD, Week 16-56) | Subjects with 8 - Interrupted attempt (50 mg QD, Week 16-56) | Subjects with 9 - Non-fatal suicide attempt (50 mg QD, Week 16-56) | Subjects with 10 - Completed suicide (50 mg QD, Week 16-56) | Subjects with suicidal behavior (50 mg QD, Week 16-56) | Subjects with suicidal ideation (50 mg QD, Week 16-56) | Subjects with suicidal ideation or behavior (50 mg QD, Week 16-56) | Subjects with 1 - Wish to be dead (50 mg QD, through Week 56) | Subjects with 2 - Non-specific active suicidal thoughts (50 mg QD, through Week 56) | Subjects with 3 - Active suicidal ideation with any methods (not plan) without intent to act (50 mg QD, through Week 56) | Subjects with 4 - Active suicidal ideation with some intent to act, without specific plan (50 mg QD, through Week 56) | Subjects with 5 - Active suicidal ideation with specific plan and intent (50 mg QD, through Week 56) | Subjects with 6 - Preparatory acts or behavior (50 mg QD, through Week 56) | Subjects with 7 - Aborted attempt (50 mg QD, through Week 56) | Subjects with 8 - Interrupted attempt (50 mg QD, through Week 56) | Subjects with 9 - Non-fatal suicide attempt (50 mg QD, through Week 56) | Subjects with 10 - Completed suicide (50 mg QD, through Week 56) | Subjects with suicidal behavior (50 mg QD, through Week 56) | Subjects with suicidal ideation (50 mg QD, through Week 56) | Subjects with suicidal ideation or behavior (50 mg QD, through Week 56) | Subjects with 1 - Wish to be dead (100 mg BID, Week 16-56) | Subjects with 2 - Non-specific active suicidal thoughts (100 mg BID, Week 16-56) | Subjects with 3 - Active suicidal ideation with any methods (not plan) without intent to act (100 mg BID, Week 16-56) | Subjects with 4 - Active suicidal ideation with some intent to act, without specific plan (100 mg BID, Week 16-56) | Subjects with 5 - Active suicidal ideation with specific plan and intent (100 mg BID, Week 16-56) | Subjects with 6 - Preparatory acts or behavior (100 mg BID, Week 16-56) | Subjects with 7 - Aborted attempt (100 mg BID, Week 16-56) | Subjects with 8 - Interrupted attempt (100 mg BID, Week 16-56) | Subjects with 9 - Non-fatal suicide attempt (100 mg BID, Week 16-56) | Subjects with 10 - Completed suicide (100 mg BID, Week 16-56) | Subjects with suicidal behavior (100 mg BID, Week 16-56) | Subjects with suicidal ideation (100 mg BID, Week 16-56) | Subjects with suicidal ideation or behavior (100 mg BID, Week 16-56) | Subjects with 1 - Wish to be dead (100 mg BID, through Week 56) | Subjects with 2 - Non-specific active suicidal thoughts (100 mg BID, through Week 56) | Subjects with 3 - Active suicidal ideation with any methods (not plan) without intent to act (100 mg BID, through Week 56) | Subjects with 4 - Active suicidal ideation with some intent to act, without specific plan (100 mg BID, through Week 56) | Subjects with 5 - Active suicidal ideation with specific plan and intent (100 mg BID, through Week 56) | Subjects with 6 - Preparatory acts or behavior (100 mg BID, through Week 56) | Subjects with 7 - Aborted attempt (100 mg BID, through Week 56) | Subjects with 8 - Interrupted attempt (100 mg BID, through Week 56) | Subjects with 9 - Non-fatal suicide attempt (100 mg BID, through Week 56) | Subjects with 10 - Completed suicide (100 mg BID, through Week 56) | Subjects with suicidal behavior (100 mg BID, through Week 56) | Subjects with suicidal ideation (100 mg BID, through Week 56) | Subjects with suicidal ideation or behavior (100 mg BID, through Week 56) | Subjects with 1 - Wish to be dead (100 mg QD, Week 16-56) | Subjects with 2 - Non-specific active suicidal thoughts (100 mg QD, Week 16-56) | Subjects with 3 - Active suicidal ideation with any methods (not plan) without intent to act (100 mg QD, Week 16-56) | Subjects with 4 - Active suicidal ideation with some intent to act, without specific plan (100 mg QD, Week 16-56) | Subjects with 5 - Active suicidal ideation with specific plan and intent (100 mg QD, Week 16-56) | Subjects with 6 - Preparatory acts or behavior (100 mg QD, Week 16-56) | Subjects with 7 - Aborted attempt (100 mg QD, Week 16-56) | Subjects with 8 - Interrupted attempt (100 mg QD, Week 16-56) | Subjects with 9 - Non-fatal suicide attempt (100 mg QD, Week 16-56) | Subjects with 10 - Completed suicide (100 mg QD, Week 16-56) | Subjects with suicidal behavior (100 mg QD, Week 16-56) | Subjects with suicidal ideation (100 mg QD, Week 16-56) | Subjects with 1 - Wish to be dead (100 mg QD, through Week 56) | Subjects with 2 - Non-specific active suicidal thoughts (100 mg QD, through Week 56) | Subjects with 3 - Active suicidal ideation with any methods (not plan) without intent to act (100 mg QD, through Week 56) | Subjects with 4 - Active suicidal ideation with some intent to act, without specific plan (100 mg QD, through Week 56) | Subjects with 5 - Active suicidal ideation with specific plan and intent (100 mg QD, through Week 56) | Subjects with 6 - Preparatory acts or behavior (100 mg QD, through Week 56) | Subjects with 7 - Aborted attempt (100 mg QD, through Week 56) | Subjects with 8 - Interrupted attempt (100 mg QD, through Week 56) | Subjects with 10 - Completed suicide (100 mg QD, through Week 56) | Subjects with suicidal ideation (100 mg QD, through Week 56) | Subjects with 1 - Wish to be dead [1] | Subjects with 2 - Non-specific active suicidal thoughts [1] | Subjects with 3 - Active suicidal ideation with any methods (not plan) without intent to act [1] | Subjects with 4 - Active suicidal ideation with some intent to act, without specific plan [1] | Subjects with 5 - Active suicidal ideation with specific plan and intent [1] | Subjects with 6 - Preparatory acts or behavior [1] | Subjects with 7 - Aborted attempt [1] | Subjects with 8 - Interrupted attempt [1] | Subjects with 9 - Non-fatal suicide attempt [1] | Subjects with 10 - Completed suicide [1] | Subjects with suicidal behavior [1] | Subjects with suicidal ideation [1] | Subjects with 1 - Wish to be dead (Combined, through Week 56) | Subjects with 2 - Non-specific active suicidal thoughts (Combined, through Week 56) | Subjects with 3 - Active suicidal ideation with any methods (not plan) without intent to act (Combined, through Week 56) | Subjects with 4 - Active suicidal ideation with some intent to act, without specific plan (Combined, through Week 56) | Subjects with 5 - Active suicidal ideation with specific plan and intent (Combined, through Week 56) | Subjects with 6 - Preparatory acts or behavior (Combined, through Week 56) | Subjects with 7 - Aborted attempt (Combined, through Week 56) | Subjects with 8 - Interrupted attempt (Combined, through Week 56) | Subjects with 10 - Completed suicide (Combined, through Week 56) | Subjects with suicidal ideation (Combined, through Week 56) | Subjects with 1 - Wish to be dead [2] | Subjects with 2 - Non-specific active suicidal thoughts [2] | Subjects with 3 - Active suicidal ideation with any methods (not plan) without intent to act [2] | Subjects with 4 - Active suicidal ideation with some intent to act, without specific plan [2] | Subjects with 5 - Active suicidal ideation with specific plan and intent [2] | Subjects with 6 - Preparatory acts or behavior [2] | Subjects with 7 - Aborted attempt [2] | Subjects with 8 - Interrupted attempt [2] | Subjects with 9 - Non-fatal suicide attempt [2] | Subjects with 10 - Completed suicide [2] | Subjects with suicidal behavior [2] | Subjects with suicidal ideation [2] | Subjects with suicidal ideation or behavior [2] | Subjects with 1 - Wish to be dead [3] | Subjects with 2 - Non-specific active suicidal thoughts [3] | Subjects with 3 - Active suicidal ideation with any methods (not plan) without intent to act [3] | Subjects with 4 - Active suicidal ideation with some intent to act, without specific plan [3] | Subjects with 5 - Active suicidal ideation with specific plan and intent [3] | Subjects with 6 - Preparatory acts or behavior [3] | Subjects with 7 - Aborted attempt [3] | Subjects with 8 - Interrupted attempt [3] | Subjects with 9 - Non-fatal suicide attempt [3] | Subjects with 10 - Completed suicide [3] | Subjects with suicidal behavior [3] | Subjects with suicidal ideation [3] | Subjects with suicidal ideation or behavior [3]

— patent US20260232767A1, “INTERLEUKIN-23 RECEPTOR ANTAGONIST PEPTIDES FOR USE IN THE TREATMENT OF PSORIASIS” (Janssen Pharmaceutica NV, priority 2023, published 2026)
